Measurements reported in PubChem BioAssay (NCI).
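All cell lines were grown in 96-well plates and treated with compound for 48 hours. GI50 marks 50% less growth. TGI: total growth inhibition.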

Experiments:
Experiment in all cases: NCI-60 cell line screen, 48 h; in the data active means GI50 below about 0.43 µM; inactive means the rest
SNB-75 CNS = system: SNB-75 CNS
786-0 renal = system: 786-0 renal
SW-620 colon = system: SW-620 colon
HCT-15 colon = system: HCT-15 colon
SK-MEL-28 melanoma = system: SK-MEL-28 melanoma
DU-145 prostate = system: DU-145 prostate
HCC-2998 colon = system: HCC-2998 colon
OVCAR-8 ovarian = system: OVCAR-8 ovarian
COLO 205 colon = system: COLO 205 colon
NCI-H226 lung = system: NCI-H226 lung
HOP-62 NSCLC = system: HOP-62 NSCLC
HT29 colon = system: HT29 colon
MDA-MB-435 = system: MDA-MB-435
MALME-3M melanoma = system: MALME-3M melanoma
OVCAR-3 ovarian = system: OVCAR-3 ovarian
UACC-62 melanoma = system: UACC-62 melanoma
SNB-19 CNS = system: SNB-19 CNS
K-562 leukemia = system: K-562 leukemia
SF-268 CNS = system: SF-268 CNS
M14 melanoma = system: M14 melanoma
OVCAR-4 ovarian = system: OVCAR-4 ovarian
HOP-92 NSCLC = system: HOP-92 NSCLC
A498 renal = system: A498 renal
NCI-H23 lung = system: NCI-H23 lung
IGROV1 ovarian = system: IGROV1 ovarian
SN12C renal = system: SN12C renal
PC-3 prostate = system: PC-3 prostate
KM12 colon = system: KM12 colon
SF-295 CNS = system: SF-295 CNS
CCRF-CEM leukemia = system: CCRF-CEM leukemia
UACC-257 melanoma = system: UACC-257 melanoma
SK-MEL-5 melanoma = system: SK-MEL-5 melanoma
NCI/ADR-RES ovarian = system: NCI/ADR-RES ovarian
SF-539 CNS = system: SF-539 CNS
HL-60(TB) leukemia = system: HL-60(TB) leukemia
RPMI-8226 leukemia = system: RPMI-8226 leukemia
MOLT-4 leukemia = system: MOLT-4 leukemia
U251 CNS = system: U251 CNS
T-47D breast = system: T-47D breast
TK-10 renal = system: TK-10 renal
LOX IMVI melanoma = system: LOX IMVI melanoma
MCF7 breast = system: MCF7 breast
BT-549 breast = system: BT-549 breast
A549 NSCLC = system: A549 NSCLC
NCI-H522 lung = system: NCI-H522 lung
UO-31 renal = system: UO-31 renal
OVCAR-5 ovarian = system: OVCAR-5 ovarian
EKVX NSCLC = system: EKVX NSCLC
SK-OV-3 ovarian = system: SK-OV-3 ovarian
NCI-H460 lung = system: NCI-H460 lung
SK-MEL-2 melanoma = system: SK-MEL-2 melanoma
ACHN renal = system: ACHN renal
HCT-116 colon = system: HCT-116 colon
HS 578T breast = system: HS 578T breast
CAKI-1 renal = system: CAKI-1 renal
SR leukemia = system: SR leukemia
RXF 393 renal = system: RXF 393 renal
MDA-MB-231 breast = system: MDA-MB-231 breast

N#Cc1cccc(/C(N)=N/C(N)=N/c2nc3ccccc3s2)c1
> 23200 nM: TGI (OVCAR-3 ovarian)
73800 nM: TGI (NCI-H226 lung)
40700 nM: TGI (SK-OV-3 ovarian)
> 28200 nM: TGI (SK-MEL-5 melanoma)
> 100000 nM: TGI (SW-620 colon) | TGI (HCT-15 colon) | TGI (SK-MEL-28 melanoma) | TGI (DU-145 prostate) | TGI (HCC-2998 colon) | TGI (OVCAR-8 ovarian) | TGI (COLO 205 colon) | TGI (HT29 colon) | TGI (K-562 leukemia) | TGI (M14 melanoma) | TGI (OVCAR-4 ovarian) | TGI (NCI-H23 lung) | TGI (IGROV1 ovarian) | TGI (SN12C renal) | TGI (PC-3 prostate) | TGI (KM12 colon) | TGI (CCRF-CEM leukemia) | TGI (UACC-257 melanoma) | TGI (NCI/ADR-RES ovarian) | TGI (RPMI-8226 leukemia) | TGI (T-47D breast) | TGI (LOX IMVI melanoma) | TGI (MCF7 breast) | TGI (A549 NSCLC) | TGI (NCI-H522 lung) | TGI (UO-31 renal) | TGI (OVCAR-5 ovarian) | TGI (EKVX NSCLC) | TGI (NCI-H460 lung) | TGI (ACHN renal) | TGI (HCT-116 colon) | TGI (SR leukemia) | TGI (MDA-MB-231 breast)
> 25600 nM: TGI (MOLT-4 leukemia)
> 60600 nM: TGI (HOP-92 NSCLC)
inactive: GI50 (786-0 renal) 733 nM | GI50 (SW-620 colon) 485 nM | GI50 (HCT-15 colon) 443 nM | GI50 (SK-MEL-28 melanoma) 5330 nM | GI50 (DU-145 prostate) 1560 nM | GI50 (HCC-2998 colon) 2850 nM | GI50 (OVCAR-8 ovarian) 1590 nM | GI50 (COLO 205 colon) 1020 nM | GI50 (NCI-H226 lung) 1220 nM | GI50 (HOP-62 NSCLC) 609 nM | GI50 (HT29 colon) 450 nM | GI50 (MALME-3M melanoma) 1570 nM | GI50 (OVCAR-3 ovarian) 508 nM | GI50 (SNB-19 CNS) 614 nM | GI50 (SF-268 CNS) 1700 nM | GI50 (M14 melanoma) 513 nM | GI50 (OVCAR-4 ovarian) 2740 nM | GI50 (HOP-92 NSCLC) 2750 nM | GI50 (A498 renal) 1130 nM | GI50 (NCI-H23 lung) 1790 nM | GI50 (IGROV1 ovarian) 826 nM | GI50 (SN12C renal) 1130 nM | GI50 (PC-3 prostate) 840 nM | GI50 (KM12 colon) 511 nM | GI50 (SF-295 CNS) 504 nM | GI50 (CCRF-CEM leukemia) 551 nM | GI50 (UACC-257 melanoma) > 100000 nM | GI50 (SK-MEL-5 melanoma) 699 nM | GI50 (NCI/ADR-RES ovarian) 437 nM | GI50 (SF-539 CNS) 457 nM | GI50 (RPMI-8226 leukemia) 686 nM | GI50 (MOLT-4 leukemia) 657 nM | GI50 (U251 CNS) 591 nM | GI50 (T-47D breast) 659 nM | GI50 (TK-10 renal) 9170 nM | GI50 (LOX IMVI melanoma) 614 nM | GI50 (MCF7 breast) 427 nM | GI50 (BT-549 breast) 1030 nM | GI50 (A549 NSCLC) 3480 nM | GI50 (NCI-H522 lung) 481 nM | GI50 (UO-31 renal) 1810 nM | GI50 (OVCAR-5 ovarian) 3650 nM | GI50 (EKVX NSCLC) 2410 nM | GI50 (SK-OV-3 ovarian) 1790 nM | GI50 (NCI-H460 lung) 479 nM | GI50 (SK-MEL-2 melanoma) 1330 nM | GI50 (ACHN renal) 855 nM | GI50 (HCT-116 colon) 487 nM | GI50 (HS 578T breast) 531 nM | GI50 (CAKI-1 renal) 538 nM | GI50 (SR leukemia) 437 nM | GI50 (MDA-MB-231 breast) 2640 nM
active: GI50 (SNB-75 CNS) 213 nM | GI50 (MDA-MB-435) 211 nM | GI50 (UACC-62 melanoma) 418 nM | GI50 (K-562 leukemia) 316 nM | GI50 (HL-60(TB) leukemia) 311 nM | GI50 (RXF 393 renal) 388 nM
> 66700 nM: TGI (MALME-3M melanoma)
> 41000 nM: TGI (SF-295 CNS)
11600 nM: TGI (A498 renal)
> 54400 nM: TGI (U251 CNS)
> 72600 nM: TGI (SNB-19 CNS)
> 34300 nM: TGI (CAKI-1 renal)
> 59300 nM: TGI (BT-549 breast)
776 nM: TGI (MDA-MB-435)
> 71500 nM: TGI (UACC-62 melanoma)
> 77700 nM: TGI (786-0 renal)
> 92400 nM: TGI (TK-10 renal)
4050 nM: TGI (SF-539 CNS)
9330 nM: TGI (SNB-75 CNS)
> 71700 nM: TGI (SF-268 CNS)
> 60700 nM: TGI (SK-MEL-2 melanoma)
2420 nM: TGI (RXF 393 renal)
> 43300 nM: TGI (HS 578T breast)
18200 nM: TGI (HOP-62 NSCLC)
